Laboratory results from patent US5063045A, “Method for evaluating antiallergic substances” (Nippon Zoki Pharmaceutical Co., Ltd., priority 1989, dated 1991).
Where a name gives a salt, the structure may show the parent alone.

Experiments:
[1] = system: actively sensitized guinea pigs; test: Nasal secretion on repeated nasal provocations with ovalbumin in actively sensitized guinea pigs; type: in vivo, guinea pig; details: 1.0 mg/kg/day p.o.
Description: Active sensitization was carried out in a manner similar to the preparation of anti-ovalbumin serum mentioned above. Namely, 1 μg ovalbumin and 5 mg of aluminum hydroxide (adjuvant) in 1 ml of saline were injected into guinea pigs intraperitoneally 6 times every 2 weeks.
Two weeks after the active sensitization with ovalbumin, 50 μl of 1% ovalbumin in saline was administered into both anterior nares to start nasal provocation with allergen. Then the nasal provocations with ovalbumin were repeated 1, 4, 7, 10 and 13 days after the first provocation.
Defatted cotton threads (No. 40/2) were dyed with 10% fluorescein-Na in physiological saline at one end, and were cut to a total length of 100 mm with the colored end 10 mm in length. About 15 mm of the colored end of the thread was inserted into the left anterior naris of the guinea pigs for 60 sec. The length of thread dyed with fluorescein due to nasal secretion was taken as a measure of the amount of nasal secretion. (A few threads can be used together when the amount of nasal secretion is large).
Enhanced nasal mucosal sensitivity was measured by using animals obtained by repeated nasal provocations with ovalbumin in actively sensitized guinea pigs with the allergen according to the method of Examples 4, 5 and 6. The inhibitory action for nasal secretion of Ketotifen fumarate (1.0 mg/kg/day, p.o.) was also measured using this assay system.

[2] = system: passively sensitized SART stressed guinea pigs; test: Nasal secretion (dyed thread length) after nasal provocation with ovalbumin in passively sensitized SART stressed guinea pigs; type: in vivo, guinea pig (male Hartley strain); details: for Inhibition: inhibition of nasal secretion vs control
Description: Male Hartley strain guinea pigs weighing 300 to 500 g were used. The threshold of nasal mucosal sensitivity to methacholine of these animals was previously measured with a nasal thread dyed with fluorescein, and those guinea pigs having normal sensitivity were divided into groups of 7 or 8 animals making the average of the threshold of sensitivity substantially equal in each group. To load SART stress, the guinea pigs were kept in a thermostatic box at the environmental temperature of 0° C. and 24° C. alternately for one hour period from 10:00 a.m. to 5:00 p.m., and at 0° C. from 5:00 p.m. to 10:00 a.m. the next day. This stress loading was continued for 5 days prior to sensitization. The stress-loaded guinea pigs from the previous example were sensitized intraperitoneally using 20 μg of ovalbumin and 10 mg of aluminum hydroxide (adjuvant) in 1 ml of saline 7 times every 2 weeks. After 2 weeks of the sensitization, airway sensitization was performed by ultranebulization with 3 ml of 0.1% ovalbumin in saline for 5 consecutive days. One week later, nasal provocation was performed by application of 50 μl of 1% ovalbumin in saline on both anterior nares, and antiserum was collecting from guinea pigs showing typical nasal symptoms of nasal allergy such as sneeze, nasal secretion and asthma. This anti-ovalbumin serum was preserved at -80° C. The provocation was made by application of 50 μl of 1% ovalbumin on the left anterior naris 2 days after passive sensitization by intraperitoneally injecting 2 ml of diluted anti-ovalbumin serum from the previous example (diluted ratio;×1/8). […] Defatted cotton threads (No. 40/2) were dyed with 10% fluorescein-Na in physiological saline at one end, and were cut to a total length of 100 mm with the colored end 10 mm in length. About 15 mm of the colored end of the thread was inserted into the left anterior naris of the guinea pigs for 60 sec. The length of thread dyed with fluorescein due to nasal secretion was taken as a measure of the amount of nasal secretion. (A few threads can be used together when the amount of nasal secretion is large). […] The amount of nasal secretion was measured by the length of the colored portion of the thread dyed with fluorescein.

[3] = Ketotifen fumarate 0.3 mg/kg/day p.o.
[4] = Ketotifen fumarate 1.0 mg/kg/day p.o.
[5] = Ketotifen fumarate 3.0 mg/kg/day p.o.

CN1CCC(=C2c3ccccc3CC(=O)c3sccc32)CC1 [Ketotifen, Ketotifen fumarate]
Nasal secretion ([1]; 1st provocation with allergen): 68.9 mm
Nasal secretion ([1]; 2nd provocation with allergen (1 day)): 54.1 mm
Nasal secretion ([1]; 3rd provocation with allergen (4 days)): 73.0 mm
Nasal secretion ([1]; 4th provocation with allergen (7 days)): 68.5 mm
Nasal secretion ([1]; 5th provocation with allergen (10 days)): 77.3 mm
Nasal secretion ([1]; 6th provocation with allergen (13 days)): 96.9 mm
Nasal secretion [2, 3]: 33.5 mm
Nasal secretion [2, 4]: 23.9 mm
Nasal secretion [2, 5]: 16.1 mm
Inhibition [2, 3]: 25.5%
Inhibition [2, 4]: 46.9%
Inhibition [2, 5]: 64.2%
